“And” between values parts separate entries of the source, which are not always exact repeats. Identical values can stand only once. Inconclusive results and toxic doses are left out. How the source made its calls: active means survival T/C of 150% or more; inactive means T/C below 125% in these data.
Test system: CD2F1 mice, L1210 leukemia ip, survival T/C
Test: NCI In Vivo Anticancer Drug Screen. Data for tumor model L1210 Leukemia (intraperitoneal) in CD2F1 (CDF1) mice
Conditions: higher = longer survival
Procedure, shortened: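 Tumor-bearing mice (transplanted tumor) were split into treated and vehicle control groups, and the measured endpoint of each treated group was divided by that of its vehicle controls.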

[1] = endpoint: mean survival time, dose: 100.0 mg/kg/injection, schedule: Q01DX009 (ip), vehicle: saline with Tween-80
[2] = endpoint: mean survival time, dose: 200.0 mg/kg/injection, schedule: Q01DX009 (ip), vehicle: saline with Tween-80
[3] = endpoint: mean survival time, dose: 100.0 mg/kg/injection, schedule: Q01DX001 (ip), vehicle: saline
[4] = endpoint: mean survival time, dose: 200.0 mg/kg/injection, schedule: Q01DX001 (ip), vehicle: saline
[5] = endpoint: mean survival time, dose: 400.0 mg/kg/injection, schedule: Q01DX001 (ip), vehicle: saline
[6] = endpoint: mean survival time, dose: 12.5 mg/kg/injection, schedule: Q01DX009 (ip), vehicle: saline with Tween-80
[7] = endpoint: mean survival time, dose: 25.0 mg/kg/injection, schedule: Q01DX009 (ip), vehicle: saline with Tween-80
[8] = endpoint: mean survival time, dose: 50.0 mg/kg/injection, schedule: Q01DX009 (ip), vehicle: saline with Tween-80
[9] = endpoint: mean survival time, dose: 25.0 mg/kg/injection, schedule: Q04DX003 (ip), vehicle: saline with Tween-80
[10] = endpoint: mean survival time, dose: 100.0 mg/kg/injection, schedule: Q01DX001 (ip), vehicle: saline with Tween-80
[11] = endpoint: mean survival time, dose: 100.0 mg/kg/injection, schedule: Q04DX002 (ip), vehicle: saline with Tween-80
[12] = endpoint: mean survival time, dose: 200.0 mg/kg/injection, schedule: Q01DX001 (ip), vehicle: saline with Tween-80
[13] = endpoint: mean survival time, dose: 200.0 mg/kg/injection, schedule: Q04DX002 (ip), vehicle: saline with Tween-80
[14] = endpoint: mean survival time, dose: 400.0 mg/kg/injection, schedule: Q01DX001 (ip), vehicle: saline with Tween-80
[15] = endpoint: mean survival time, dose: 400.0 mg/kg/injection, schedule: Q04DX002 (ip), vehicle: saline with Tween-80
[16] = endpoint: mean survival time, dose: 3.13 mg/kg/injection, schedule: Q04DX002 (ip), vehicle: saline with Tween-80

Measured: T/C

CSc1nnc(SC)c(SC)n1
inactive: endpoint: mean survival time, dose: 75.0 mg/kg/injection, schedule: Q01DX001 (ip), vehicle: saline 96 % of control

Cn1c(C(N)=O)cc(=O)n1-c1ccccc1
inactive: endpoint: mean survival time, dose: 100.0 mg/kg/injection, schedule: Q01DX001 (ip), vehicle: saline sonified 102 % of control | [1] 107 % of control | endpoint: mean survival time, dose: 200.0 mg/kg/injection, schedule: Q01DX001 (ip), vehicle: saline sonified 96 % of control | [2] 103 % of control | endpoint: mean survival time, dose: 400.0 mg/kg/injection, schedule: Q01DX001 (ip), vehicle: saline sonified 98 % of control | endpoint: mean survival time, dose: 400.0 mg/kg/injection, schedule: Q01DX009 (ip), vehicle: saline with Tween-80 105 % of control

Cc1nc(N)[nH]c(=O)c1Cc1ccccc1O
inactive: [3] 100 % of control | [4] 97 % of control | [5] 97 % of control

Cc1cc2cc3cc(C)c(N)cc3nc2cc1N
inactive: endpoint: mean survival time, dose: 3.12 mg/kg/injection, schedule: Q01DX009 (ip), vehicle: saline with Tween-80 103 % of control and 106 % of control | endpoint: mean survival time, dose: 6.25 mg/kg/injection, schedule: Q01DX009 (ip), vehicle: saline with Tween-80 101 % of control and 107 % of control | [6] 106 % of control | [7] 98 % of control and 106 % of control | [8] 86 % of control and 97 % of control | [1] 92 % of control

NC(=S)c1cccc2ccccc12
inactive: endpoint: mean survival time, dose: 100.0 mg/kg/injection, schedule: Q04DX002 (ip), vehicle: Klucel (hydroxypropylcellulose) (HPC) 105 % of control | endpoint: mean survival time, dose: 200.0 mg/kg/injection, schedule: Q04DX002 (ip), vehicle: Klucel (hydroxypropylcellulose) (HPC) 98 % of control | endpoint: mean survival time, dose: 400.0 mg/kg/injection, schedule: Q04DX002 (ip), vehicle: Klucel (hydroxypropylcellulose) (HPC) 110 % of control

CN(C)/C(N)=N\c1nc(O)cc(=O)[nH]1
inactive: [3] 102 % of control | [4] 96 % of control | [5] 96 % of control

O=C(C=C(C(F)(F)F)C(F)(F)F)c1cccc([N+](=O)[O-])c1
inactive: endpoint: mean survival time, dose: 12.5 mg/kg/injection, schedule: Q04DX003 (ip), vehicle: saline with Tween-80 103 % of control | [9] 96 % of control

Cc1ccccc1C1CCC(=O)OC1=O (centres undefined)
inactive: [10] 97 % of control | [11] 100 % of control | [12] 95 % of control | [13] 103 % of control | [14] 94 % of control | [15] 100 % of control

O=C1/C(=N/Nc2ccccc2)c2cccc3cccc1c23
inactive: [10] 97 % of control | [12] 100 % of control | [14] 106 % of control

Nc1nc(F)nc2c1ncn2C1OC(COC=O)C(OC=O)C1O (centres undefined) (tested in a mixture with another compound)
active: endpoint: mean survival time, dose: 100.0 mg/kg/injection, schedule: Q01DX009 (ip), vehicle: saline 205 % of control | endpoint: mean survival time, dose: 125.0 mg/kg/injection, schedule: Q01DX009 (ip), vehicle: saline 243 % of control and 419 % of control | endpoint: mean survival time, dose: 150.0 mg/kg/injection, schedule: Q01DX009 (ip), vehicle: saline with Tween-80 512 % of control | endpoint: mean survival time, dose: 150.0 mg/kg/injection, schedule: Q01DX009 (ip), vehicle: saline 288 % of control and 370 % of control | endpoint: mean survival time, dose: 175.0 mg/kg/injection, schedule: Q01DX005 (ip), vehicle: saline with Tween-80 163 % of control | endpoint: mean survival time, dose: 175.0 mg/kg/injection, schedule: Q01DX009 (ip), vehicle: saline with Tween-80 551 % of control | endpoint: mean survival time, dose: 175.0 mg/kg/injection, schedule: Q01DX009 (ip), vehicle: saline 318 % of control | endpoint: mean survival time, dose: 200.0 mg/kg/injection, schedule: Q01DX005 (ip), vehicle: saline with Tween-80 179 % of control | [2] 298 % of control | endpoint: mean survival time, dose: 250.0 mg/kg/injection, schedule: Q01DX009 (ip), vehicle: saline with Tween-80 189 % of control

CCCCCCCCCCCCCCCC[N+](C)(CCO)Cc1ccccc1 (centres undefined)
inactive: [16] 100 % of control | endpoint: mean survival time, dose: 6.25 mg/kg/injection, schedule: Q04DX002 (ip), vehicle: saline with Tween-80 100 % of control | endpoint: mean survival time, dose: 12.5 mg/kg/injection, schedule: Q04DX002 (ip), vehicle: saline with Tween-80 96 % of control

C=CN1C(=O)NC2(CCCCC2)C1=O
inactive: [7] 96 % of control | [9] 92 % of control | [8] 96 % of control | endpoint: mean survival time, dose: 50.0 mg/kg/injection, schedule: Q04DX003 (ip), vehicle: saline with Tween-80 97 % of control | endpoint: mean survival time, dose: 100.0 mg/kg/injection, schedule: Q04DX003 (ip), vehicle: saline with Tween-80 95 % of control

O=C(Nc1cccc(C(F)(F)F)c1)c1cccc(C(=O)Nc2cccc(C(F)(F)F)c2)c1
inactive: [6] 92 % of control | [7] 89 % of control | [8] 89 % of control

CCCC(=O)Nc1ncnc2c1nc(SCc1ccccc1)n2C1OC2COP(=O)(O)OC2C1OC(=O)CCC (centres undefined)
inactive: endpoint: mean survival time, dose: 6.25 mg/kg/injection, schedule: Q01DX005 (ip), vehicle: water 101 % of control | endpoint: mean survival time, dose: 12.5 mg/kg/injection, schedule: Q01DX005 (ip), vehicle: water 93 % of control | endpoint: mean survival time, dose: 25.0 mg/kg/injection, schedule: Q01DX005 (ip), vehicle: water 93 % of control | endpoint: mean survival time, dose: 50.0 mg/kg/injection, schedule: Q01DX005 (ip), vehicle: water 101 % of control | endpoint: mean survival time, dose: 100.0 mg/kg/injection, schedule: Q01DX005 (ip), vehicle: water 101 % of control

CC(C)CC(NC(=O)OCc1ccccc1)C(=O)NCCCCCCCCCCNC(=O)C(CC(C)C)NC(=O)OCc1ccccc1 (centres undefined)
inactive: endpoint: mean survival time, dose: 10.0 mg/kg/injection, schedule: Q01DX Z (ip), vehicle: saline 96 % of control | endpoint: mean survival time, dose: 30.0 mg/kg/injection, schedule: Q01DX Z (ip), vehicle: saline 97 % of control | endpoint: mean survival time, dose: 100.0 mg/kg/injection, schedule: Q01DX Z (ip), vehicle: saline 91 % of control | endpoint: mean survival time, dose: 300.0 mg/kg/injection, schedule: Q01DX Z (ip), vehicle: saline 97 % of control

c1ccc(/C(=N\Nc2nc3ccccc3s2)c2ccncc2)cc1
inactive: endpoint: mean survival time, dose: 100.0 mg/kg/injection, schedule: Q04DX003 (ip), vehicle: Klucel (hydroxypropylcellulose) (HPC) 92 % of control | endpoint: mean survival time, dose: 200.0 mg/kg/injection, schedule: Q04DX003 (ip), vehicle: Klucel (hydroxypropylcellulose) (HPC) 89 % of control | endpoint: mean survival time, dose: 400.0 mg/kg/injection, schedule: Q04DX003 (ip), vehicle: Klucel (hydroxypropylcellulose) (HPC) 92 % of control

COC1=C(OC)C(=O)C(N(C)C)=C(CO)C1=O
inactive: endpoint: median survival time, dose: 15.0 mg/kg/injection, schedule: Q01DX005 (ip), vehicle: saline 102 % of control | endpoint: median survival time, dose: 30.0 mg/kg/injection, schedule: Q01DX005 (ip), vehicle: saline 100 % of control | endpoint: median survival time, dose: 60.0 mg/kg/injection, schedule: Q01DX005 (ip), vehicle: saline 103 % of control | endpoint: median survival time, dose: 120.0 mg/kg/injection, schedule: Q01DX005 (ip), vehicle: saline 107 % of control

CC(=O)O/N=C(\C(c1ccccc1)c1ccccc1)C1c2ccccc2-c2ccccc21
inactive: [10] 87 % of control | [12] 87 % of control | [14] 90 % of control

CNC(=O)c1n[nH]c(C)c1N
inactive: endpoint: mean survival time, dose: 25.0 mg/kg/injection, schedule: Q01DX009 (ip), vehicle: water 97 % of control | endpoint: mean survival time, dose: 50.0 mg/kg/injection, schedule: Q01DX009 (ip), vehicle: water 98 % of control | endpoint: mean survival time, dose: 100.0 mg/kg/injection, schedule: Q01DX009 (ip), vehicle: water 101 % of control | endpoint: mean survival time, dose: 200.0 mg/kg/injection, schedule: Q01DX009 (ip), vehicle: water 98 % of control | endpoint: mean survival time, dose: 400.0 mg/kg/injection, schedule: Q01DX009 (ip), vehicle: water 101 % of control

CC(O)c1ccc2c(c1)N(CCCN1CCN(CCO)CC1)c1ccccc1S2 (centres undefined)
inactive: endpoint: mean survival time, dose: 100.0 mg/kg/injection, schedule: Q04DX003 (ip), vehicle: saline 97 % of control

CC1=Cc2ccc(C)cc2C(=O)C1=O
inactive: endpoint: mean survival time, dose: 1.56 mg/kg/injection, schedule: Q04DX002 (ip), vehicle: saline with Tween-80 117 % of control | [16] 106 % of control

CN(C)/N=N/c1[nH]ncc1C(N)=O
active: endpoint: mean survival time, dose: 1200.0 mg/kg/injection, schedule: Q01DX001 (oral), vehicle: saline 158 % of control
inactive: endpoint: mean survival time, dose: 150.0 mg/kg/injection, schedule: Q01DX001 (oral), vehicle: saline 121 % of control

NS(=O)(=O)c1ccc(N2CCCCC2)c([N+](=O)[O-])c1
inactive: endpoint: mean survival time, dose: 100.0 mg/kg/injection, schedule: Q01DX009 (ip), vehicle: other 95 % of control | [11] 91 % of control | endpoint: mean survival time, dose: 200.0 mg/kg/injection, schedule: Q01DX009 (ip), vehicle: other 95 % of control | [13] 98 % of control | endpoint: mean survival time, dose: 400.0 mg/kg/injection, schedule: Q01DX009 (ip), vehicle: other 101 % of control | [15] 100 % of control
